Patent US20160145247A1, “Aminomethyl-Biaryl Derivatives Complement Factor D inhibitors and uses thereof” (NOVARTIS AG, priority 2013, published 2016)

Target: T1, factor D (Homo sapiens, UniProt P00746)
T1 construct: made in house; host or cells: E. coli
Assay: factor D inhibition assay of Biological Example 2
Format: biochemical

T1 sequence (P00746 26-253): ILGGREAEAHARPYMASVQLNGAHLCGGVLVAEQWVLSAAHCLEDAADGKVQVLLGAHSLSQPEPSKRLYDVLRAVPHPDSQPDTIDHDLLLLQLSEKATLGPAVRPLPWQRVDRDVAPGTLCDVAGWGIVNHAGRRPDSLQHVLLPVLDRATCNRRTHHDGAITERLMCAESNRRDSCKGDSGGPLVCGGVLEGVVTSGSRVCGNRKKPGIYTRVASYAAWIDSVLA

Point of comparison: N[C@H](CO)c1cccc(-c2cccc(COc3ccccc3CC(=O)O)c2)c1F [Example 142-E], IC50 0.008 µM. Against it:
- N[C@H](CO)c1cccc(-c2cc(COc3ccccc3CC(=O)O)cc(NCC3CC3)c2)c1 [Example 128-C, (S)-2-(2-((3′-(1-Amino-2-hydroxyethyl)-5-((cyclopropylmethyl)amino)-[1,1′-biphenyl]-3-yl)methoxy)phenyl)acetic acid] — 2.7-fold lower, 0.003 µM
- CCNc1cc(COc2ccccc2CC(=O)O)cc(-c2cccc([C@H](N)CO)c2)c1 [Example 129, (S)-2-(2-((3′-(1-Amino-2-hydroxyethyl)-5-(ethylamino)-[1,1′-biphenyl]-3-yl)methoxy)phenyl)acetic acid] — within 1.5-fold, 0.009 µM
- CNc1cc(COc2ccccc2CC(=O)O)cc(-c2cccc([C@H](N)CO)c2)c1 [Example 131, (S)-2-(2-((3′-(1-Amino-2-hydroxyethyl)-5-(methylamino)-[1,1′-biphenyl]-3-yl)methoxy)phenyl)acetic acid] — 2.2-fold higher, 0.018 µM
- CN(C)c1cc(COc2ccccc2CC(=O)O)cc(-c2cccc([C@H](N)CO)c2)c1 [Example 132, (S)-2-(2-((3′-(1-Amino-2-hydroxyethyl)-5-(dimethylamino)-[1,1′-biphenyl]-3-yl)methoxy)phenyl)acetic acid] — 2.2-fold higher, 0.018 µM
- Nc1cc(COc2ccccc2CC(=O)O)cc(-c2cccc([C@H](N)CO)c2)c1 [Example 133, (S)-2-(2-((5-amino-3′-(1-amino-2-hydroxyethyl)-[1,1′-biphenyl]-3-yl)methoxy)phenyl)acetic acid] — within 1.5-fold, 0.009 µM
- COc1cc(COc2ccccc2CC(=O)O)cc(-c2cccc(CN)c2)c1 [Example 134, 2-(2-((3′-(Aminomethyl)-5-methoxy-[1,1′-biphenyl]-3-yl)methoxy)phenyl)acetic acid] — 1.6-fold higher, 0.013 µM
- NCc1cccc(-c2cc(COc3ccccc3CC(=O)O)cc(OC[C@H]3CCCO3)c2)c1 [Example 135, (R)-2-(2-((3′-(Aminomethyl)-5-((tetrahydrofuran-2-yl)methoxy)-[1,1′-biphenyl]-3-yl)methoxy)phenyl)acetic acid] — 1.6-fold lower, 0.005 µM
- NCc1cccc(-c2cc(COc3ccccc3CC(=O)O)cc(OCC3CC3)c2)c1 [Example 136, 2-(2-((3′-(Aminomethyl)-5-(cyclopropylmethoxy)-[1,1′-biphenyl]-3-yl)methoxy)phenyl)acetic acid] — 1.6-fold lower, 0.005 µM
- NCc1cccc(-c2cc(COc3ccccc3CC(=O)O)ccc2F)c1F [Example 137, 2-(2-((3′-(Aminomethyl)-2′,6-difluoro-[1,1′-biphenyl]-3-yl)methoxy)phenyl)acetic acid] — 2.6-fold higher, 0.021 µM
- NCc1cc(-c2cc(COc3ccccc3CC(=O)O)cc(OC[C@H]3CCCO3)c2)ccn1 [Example 138-A] — 4-fold lower, 0.002 µM
- NCc1ccnc(-c2cc(COc3ccccc3CC(=O)O)cc(OC[C@H]3CCCO3)c2)c1 [Example 138-B] — 11-fold higher, 0.088 µM
- NCc1cncc(-c2cc(COc3ccccc3CC(=O)O)cc(OC[C@H]3CCCO3)c2)c1 [Example 138-C] — 190-fold higher, 1.52 µM
- NCc1cc(-c2cccc(COc3ccccc3CC(=O)O)c2)ccc1F [Example 138-D] — 28-fold higher, 0.223 µM
- NCc1ccc(F)c(-c2cccc(COc3ccccc3CC(=O)O)c2)c1 [Example 138-E] — 250-fold higher, 1.99 µM
- O=C(O)Cc1ccccc1OCc1cccc(-c2cccc(-c3ncc[nH]3)c2)c1 [Example 138-F] — 270-fold higher, 2.19 µM
- NCc1cc(-c2cccc(COc3ccccc3CC(=O)O)c2)ccn1 [Example 138-G] — 1.5-fold higher, 0.012 µM
- NCc1cccc(-c2cccc(COc3ccccc3CC(=O)O)c2)c1F [Example 138-H] — 1.6-fold lower, 0.005 µM
- C[C@@H](N)c1cccc(-c2cccc(COc3ccccc3CC(=O)O)c2)n1 [Example 138-I] — 38-fold higher, 0.301 µM
- O=C(O)Cc1ccccc1OCc1cccc(-c2cccc(C3CCCN3)c2)c1 (stereo not drawn) [Example 138-J] — 360-fold higher, 2.87 µM
- N[C@H](CO)c1cccc(-c2cccc(COc3ccccc3CC(=O)O)c2)n1 [Example 138-K] — 5.6-fold higher, 0.045 µM
- C[C@@H](N)c1cccc(-c2cccc(COc3ccccc3CC(=O)O)c2)c1F [Example 138-L] — 12-fold higher, 0.099 µM
- NCc1cccc(-c2cc(COc3ccccc3CC(=O)O)cc(OC[C@H]3CCCO3)c2)n1 [Example 138-M] — 1.6-fold lower, 0.005 µM
- NCc1cccc(-c2cccc(COc3ccccc3CC(=O)O)c2)n1 [Example 138-N] — 3.5-fold higher, 0.028 µM
- NCc1cccc(-c2cc(COc3ccccc3CC(=O)O)cc(NCC3CC3)c2)c1 [Example 139, 2-(2-((3′-(Aminomethyl)-5-((cyclopropylmethyl)amino)-[1,1′-biphenyl]-3-yl)methoxy)phenyl)acetic acid] — 2.8-fold higher, 0.022 µM
- NCc1cccc(-c2cc(COc3ccccc3CC(=O)O)cc(NC[C@@H]3CCCO3)c2)c1 [Example 140, (S)-2-(2-((3′-(Aminomethyl)-5-(((tetrahydrofuran-2-yl)methyl)amino)-[1,1′-biphenyl]-3-yl)methoxy)phenyl)acetic acid] — 2.7-fold lower, 0.003 µM
- N[C@H](CO)c1cccc(-c2cccc(COc3ccccc3CC(=O)O)c2)c1Cl [Example 141-B, (S)-2-(2-((3′-(1-Amino-2-hydroxyethyl)-2′-chloro-[1,1′-biphenyl]-3-yl)methoxy)phenyl)acetic acid] — 1.8-fold higher, 0.014 µM
- C[C@@H](N)c1cccc(-c2cccc(COc3ccccc3CC(=O)O)c2)c1Cl [Example 142-A] — 43-fold higher, 0.346 µM
- NCc1cccc(-c2cccc(COc3ccccc3CC(=O)O)c2)c1Cl [Example 142-B] — 9.6-fold higher, 0.077 µM
- Cc1c(-c2cccc(COc3ccccc3CC(=O)O)c2)cccc1[C@H](N)CO [Example 142-C] — 6200-fold higher, 49.6 µM
- C[C@@H](N)c1cc(-c2cccc(COc3ccccc3CC(=O)O)c2)ccn1 [Example 142-D] — 43-fold higher, 0.346 µM
- C[C@@](N)(CO)c1cccc(-c2cccc(COc3ccccc3CC(=O)O)c2)c1 [Example 142-F] — 32-fold higher, 0.26 µM
- N[C@H](CO)c1cc(-c2cccc(COc3ccccc3CC(=O)O)c2)ccn1 [Example 142-G] — 1.5-fold higher, 0.012 µM
- C[C@H](N)c1cccc(-c2cccc(COc3ccccc3CC(=O)O)c2)c1F [Example 142-H] — 2.8-fold higher, 0.022 µM
- NCc1nccc(-c2cccc(COc3ccccc3CC(=O)O)c2)c1F [Example 142-I] — 4-fold lower, 0.002 µM
- NCc1nccc(-c2cccc(COc3ccccc3CC(=O)O)c2)n1 [Example 142-J] — 8.4-fold higher, 0.067 µM
- Cc1c(CN)cccc1-c1cccc(COc2ccccc2CC(=O)O)c1 [Example 143-C, 2-(2-((3′-(Aminomethyl)-2′-methyl-[1,1′-biphenyl]-3-yl)methoxy)phenyl)acetic acid] — 16-fold higher, 0.132 µM
- NCc1cccc(-c2cccc(COc3ccccc3CC(=O)O)c2)c1O [Example 144-C, 2-(2-((3′-(Aminomethyl)-2′-hydroxy-[1,1′-biphenyl]-3-yl)methoxy)phenyl)acetic acid] — 7-fold higher, 0.056 µM
- NC(=O)Cc1ccccc1OCc1cccc(-c2cccc([C@H](N)CO)c2)c1 [Example 146-C, (S)-2-(2-((3′-(1-Amino-2-hydroxyethyl)-[1,1′-biphenyl]-3-yl)methoxy)phenyl)acetamide] — 2300-fold higher, 18.4 µM
- N[C@H](CO)c1cccc(-c2cc(COc3ccccc3CC(=O)O)cc(OCC3CC3)c2)c1 [Example 147-B, (S)-2-(2-((3′-(1-Amino-2-hydroxyethyl)-5-(cyclopropylmethoxy)-[1,1′-biphenyl]-3-yl)methoxy)phenyl)acetic acid] — 1.6-fold lower, 0.005 µM
- C[C@@H](N)c1cccc(-c2cc(COc3ccccc3CC(=O)O)cc(OCC3CC3)c2)c1F [Example 148, (R)-2-(2-((3′-(1-Aminoethyl)-5-(cyclopropylmethoxy)-2′-fluoro-[1,1′-biphenyl]-3-yl)methoxy)phenyl)acetic acid] — within 1.5-fold, 0.009 µM
- Cc1ccc(COc2ccccc2CC(=O)O)cc1-c1cccc(CN)c1F [Example 149, 2-(2-((3′-(Aminomethyl)-2′-fluoro-6-methyl-[1,1′-biphenyl]-3-yl)methoxy)phenyl)acetic acid] — 5.5-fold higher, 0.044 µM
- C[C@@H](N)c1cccc(-c2cc(COc3ccccc3CC(=O)O)cc(NCC3CC3)c2)c1F [Example 150-C, (R)-2-(2-((3′-(1-Aminoethyl)-5-((cyclopropylmethyl)amino)-2′-fluoro-[1,1′-biphenyl]-3-yl)methoxy)phenyl)acetic acid] — 2-fold lower, 0.004 µM
- CCNc1cc(COc2ccccc2CC(=O)O)cc(-c2cccc([C@@H](C)N)c2F)c1 [Example 151, (R)-2-(2-((3′-(1-aminoethyl)-5-(ethylamino)-2′-fluoro-[1,1′-biphenyl]-3-yl)methoxy)phenyl)acetic acid] — within 1.5-fold, 0.006 µM
- CC(C)Nc1cc(COc2ccccc2CC(=O)O)cc(-c2cccc([C@@H](C)N)c2F)c1 [Example 152, (R)-2-(2-((3′-(1-aminoethyl)-2′-fluoro-5-(isopropylamino)-[1,1′-biphenyl]-3-yl)methoxy)phenyl)acetic acid] — within 1.5-fold, 0.011 µM
- C[C@@H](N)c1cccc(-c2cc(COc3ccccc3CC(=O)O)cc(NC[C@H]3CCCO3)c2)c1F [Example 153, 2-(2-((3′-((R)-1-Aminoethyl)-2′-fluoro-5-((((R)-tetrahydrofuran-2-yl)methyl)amino)-[1,1′-biphenyl]-3-yl)methoxy)phenyl)acetic acid] — 2-fold lower, 0.004 µM
- NCc1ccnc(-c2cccc(COc3ccccc3CC(=O)O)c2)n1 [Example 158-C, 2-(2-((3-(4-(Aminomethyl)pyrimidin-2-yl)benzyl)oxy)phenyl)acetic acid] — 220-fold higher, 1.79 µM
- NCc1cccc(-c2cccc(COc3ccccc3CC(=O)O)n2)c1 [Example 160, 2-(2-((6-(3-(aminomethyl)phenyl)pyridin-2-yl)methoxy)phenyl)acetic acid] — 140-fold higher, 1.14 µM
- NCc1cccc(-c2ccnc(COc3ccccc3CC(=O)O)c2)c1 [Example 164, 2-(2-((4-(3-(Aminomethyl)phenyl)pyridin-2-yl)methoxy)phenyl)acetic acid] — 1.6-fold higher, 0.013 µM
- NCc1cccc(-c2ccc(C(F)(F)F)c(COc3ccccc3CC(=O)O)c2)c1 [Example 165, 2-(2-((3′-(Aminomethyl)-4-(trifluoromethyl)-[1,1′-biphenyl]-3-yl)methoxy)phenyl)acetic acid] — 2.6-fold higher, 0.021 µM
- NCc1cccc(-c2ccc(F)c(COc3ccccc3CC(=O)O)c2)c1 [Example 166, 2-(2-((3′-(Aminomethyl)-4-fluoro-[1,1′-biphenyl]-3-yl)methoxy)phenyl)acetic acid] — 2.9-fold higher, 0.023 µM
